Measured values as given in patent US4109008A, “Hydrazine derivatives useful as anti-hypertensives” (Hexachimie, priority 1976, dated 1978).

Tested on: male rats exhibiting a spontaneous genetically transmissible hypertension
Assay: Systolic arterial pressure and rate of heartbeat in spontaneously hypertensive rats after intraperitoneal administration
Format: in vivo
Settings: Rattus norvegicus, ip, 0.5 h, 40 mg/kg given intraperitoneally, T + 30 mins, read-out: percentage variation and mean deviation of the systolic arterial pressure, T + 30 mins
Experimental: The arterial pressure is measured by a "Narco Bio System" sphygmomanometer. A sleeve is placed over the base of the tail and a detector records the pulse downstream from the sleeve. The sleeve is then inflated until the pulse is stopped, thus indicating the systolic pressure. The rate of heartbeat is also recorded. The products to be studied are converted to a suspension by means of "Tween 80" and administered intraperitoneally in a volume of 1 cm^3 per 100 grams of body weight. The measurements are repeated at regular intervals.

SMILES | change in vivo at 40 mg/kg [%]
Cn1c(=O)n(C)c2cc(C=NNC3=NCCN3)ccc21 [Example 12, N-(1,3-Dimethyl-2-Oxo-5-Benzimidazolylidene)-N'-Imidazolino-Hydrazine] | -39 ± 7.4
C#CCOc1ccccc1C=NNC(=N)N [Example 1, N-[o-(Prop-2-Y-noxy)-Benzylidene]-N'-Amidino-Hydrazine] | -52 ± 3.4
